Experimental data as given in paper PMC5386260, “Acute development of cortical porosity and endosteal naïve bone formation from the daily but not weekly short-term administration of PTH in rabbit” (PLoS ONE, 2017).

Tests used:
renal function = conditions: rabbit, in vivo
Experimental: The serum samples collected for measurement of bone metabolic markers were also subjected to biochemical analysis to examine renal function. Serum blood urea nitrogen (BUN) and creatinine were measured using an autoanalyzer (Hitachi 7180 chemistry analyzer; Hitachi Ltd, Tokyo, Japan). Blood samples in all groups were collected at 0, 6, 24 hours after the administration of TPTD on days 1 and 22. Blood samples in the C, […] and […] groups were also collected at days 3 and 7 after on the 1st and 22nd days of administration. The samples were centrifuged at 1700 x g, at 4°C for 15 minutes in tubes with clot activator and serum was collected in order to measure the concentration of osteocalcin.

[1] = system: endosteal surface of rabbit tibiae; assay: DIC bright field and deconvolution fluorescence imaging of tibia sections; format: in vivo; conditions: daily administration (D20 and D40), 4 weeks
Experimental: (§1) Calcein (Dojindo Laboratories, Kumamoto, Japan) was subcutaneously injected into each animal at a dose of 10 mg/kg body weight on days 13 and 5 before sacrifice for bone double labeling (1-7-1-3). After the dosing period, the animals were euthanized by exsanguination under anesthesia using thiopental. The left and right tibiae were collected for a micro-CT analysis and histomorphometry, respectively. The kidneys, thyroid and parathyroid of all animals were collected and fixed in 10% neutral buffered formalin for a histopathological examination. The left tibiae were packed in plastic bags and stored at -30°C until use in a micro-CT analysis and mechanical testing. […]
Calcein-labeled undecalcified bone sections were subjected to imaging acquisition using a microscopy system, ECLIPSE Ni (Nikon, Tokyo, Japan) equipped with differential interference contrast microscopy (DIC) and objectives (Nikon), as follows: Plan Apo λ 10x (numerical aperture [N.A.] = 0.45), Plan Apo λ 20x (N.A. = 0.75), and Plan Apo λ 40x (N.A. = 0.95). The fluorescence signals were obtained using filter sets, GFP-B (excitation: 460–500 nm, DM: 505 nm, emission: 510–560 nm; Nikon) for calcein, and TxRed (excitation: 540–580 nm, DM: 595 nm, emission: 600–660 nm; Nikon) for auto-fluorescence derived from soft tissue. […] The fluorescence and DIC images were sequentially acquired, with a pixel size of 0.64 μm. […]

endosteal bone collagen = conditions: rabbit, in vivo
Experimental: as §1
An upright multi-photon excited microscopy system (A1RMP, Nikon Corporation, Japan) situated at the Imaging core facility of The Institute of Medical Science, The University of Tokyo was employed to acquire bone collagen-derived SHG signals and two-photon excited auto-fluorescence signals from Calcein-labeled undecalcified bone sections. […] The detection wavelengths were 420–425 nm and 500–550 nm for the acquisition of collagen-derived SHG signals and auto-fluorescence signals from soft tissue, respectively. […]

level of serum blood urea nitrogen (BUN), effect of TPTD (renal function): not significantly affected
level of serum creatinine, effect of TPTD (renal function): not significantly affected
endosteal bone collagen pattern (3D-SHG) (endosteal bone collagen): amorphously short fibers
SMILES: CC[C@H](C)[C@H](NC(=O)[C@H](CCC(=O)O)NC(=O)[C@H](CO)NC(=O)[C@@H](NC(=O)[C@@H](N)CO)C(C)C)C(=O)N[C@@H](CCC(N)=O)C(=O)N[C@@H](CC(C)C)C(=O)N[C@@H](CCSC)C(=O)N[C@@H](Cc1cnc[nH]1)C(=O)N[C@@H](CC(N)=O)C(=O)N[C@@H](CC(C)C)C(=O)NCC(=O)N[C@@H](CCCCN)C(=O)N[C@@H](Cc1cnc[nH]1)C(=O)N[C@@H](CC(C)C)C(=O)N[C@@H](CC(N)=O)C(=O)N[C@@H](CO)C(=O)N[C@@H](CCSC)C(=O)N[C@@H](CCC(=O)O)C(=O)N[C@@H](CCCN=C(N)N)C(=O)N[C@H](C(=O)N[C@@H](CCC(=O)O)C(=O)N[C@@H](Cc1c[nH]c2ccccc12)C(=O)N[C@@H](CC(C)C)C(=O)N[C@@H](CCCN=C(N)N)C(=O)N[C@@H](CCCCN)C(=O)N[C@@H](CCCCN)C(=O)N[C@@H](CC(C)C)C(=O)N[C@@H](CCC(N)=O)C(=O)N[C@@H](CC(=O)O)C(=O)N[C@H](C(=O)N[C@@H](Cc1cnc[nH]1)C(=O)N[C@@H](CC(N)=O)C(=O)N[C@@H](Cc1ccccc1)C(=O)O)C(C)C)C(C)C [TPTD, Teriparatide]
microscopic findings at the endosteal surface [1]: development of bone marrow fibrosis and poorly mineralized and disorganized bone formation
